A short description of one data set: physchem. The settings on record: hcl, pH 1.1, solubility.

SMILES strings stand for the structures. Converted amounts (≈) assume the structure as drawn. Counter-ions that a name gives are not always drawn. Like-named read-outs stand apart in the source and are kept apart here.

What is called solubility is how much of the substance goes into solution per volume. Read a high solubility as a readily soluble substance.

Take `CC(C)(C)NC(=O)[C@@H]1C[C@@H]2CCCC[C@@H]2CN1C[C@@H](O)[C@H](Cc1ccccc1)NC(=O)[C@H](CC(N)=O)NC(=O)c1ccc2ccccc2n1` [Compound A, N-tert.-butyl-decahydro-2-[2(R)-hydroxy-4-phenyl-3(S)-[[N-(2-quinolylcarbonyl)-L-asparaginyl]amino]butyl]-(4aS,8aS)-isoquinoline-3(S)-carboxamide]: the solubility (hcl, pH 1.1) is 50 µg/mL (≈ 74.5 µM); the solubility (phosphate buffer, pH 5.4) was below 10 µg/mL; the solubility (water) is 30 µg/mL (≈ 44.7 µM).

The molecule `CC(C)(C)NC(=O)[C@@H]1C[C@@H]2CCCC[C@@H]2CN1C[C@@H](O)[C@H](Cc1ccccc1)NC(=O)[C@H](CC(N)=O)NC(=O)c1ccc2ccccc2n1` [Compound A-mesylate salt] yielded a solubility (phosphate buffer, pH 5.4) of 2320 µg/mL; a solubility (water) of 2550 µg/mL; a solubility in the data set “physchem” of 60 µg/mL.

For the origin of these results see patent EP0831826B1, “PHARMACEUTICAL COMPOSITION COMPRISING A PROTEINASE INHIBITOR AND A MONOGLYCERIDE” (F. HOFFMANN-LA ROCHE AG, priority 1995, dated 1996).
